Data published in ChEMBL document CHEMBL5346912, “Discovery of 3,5-diaryl-1H-pyrazol-based ureas as potent RET inhibitors” (Eur J Med Chem, 2023).

What was measured:
[1] = target: Proto-oncogene tyrosine-protein kinase receptor Ret (Homo sapiens, UniProt P07949); assay: Binding affinity to RET (unknown origin) assessed as dissociation constant in presence of ATP by FRET based Z'-Lyte assay
[2] = system: BaF3; assay: Antiproliferative activity against mouse BaF3 cells expressing CCDC6-RET incubated for 72 hrs by CCK8 assay; assay type: functional, cell-based; details: BaF3, 72 h
[3] = system: BaF3; assay: Antiproliferative activity against mouse BaF3 cells expressing CCDC6-RET-V804M incubated for 72 hrs by CCK8 assay; assay type: functional, cell-based; details: BaF3, 72 h
[4] = system: BaF3; assay: Antiproliferative activity against mouse BaF3 cells expressing CCDC6-RET-G810C incubated for 72 hrs by CCK8 assay; assay type: functional, cell-based; details: BaF3, 72 h
[5] = system: BaF3; assay: Antiproliferative activity against mouse BaF3 cells expressing CCDC6-RET-G810R incubated for 72 hrs by CCK8 assay; assay type: functional, cell-based; details: BaF3, 72 h
[6] = system: BaF3; assay: cells; details: Mus musculus, BaF3, 72 h
Description: Antiproliferative activity against mouse BaF3 cells incubated for 72 hrs by CCK8 assay

Proto-oncogene tyrosine-protein kinase receptor Ret, sequence (P07949 whole entry): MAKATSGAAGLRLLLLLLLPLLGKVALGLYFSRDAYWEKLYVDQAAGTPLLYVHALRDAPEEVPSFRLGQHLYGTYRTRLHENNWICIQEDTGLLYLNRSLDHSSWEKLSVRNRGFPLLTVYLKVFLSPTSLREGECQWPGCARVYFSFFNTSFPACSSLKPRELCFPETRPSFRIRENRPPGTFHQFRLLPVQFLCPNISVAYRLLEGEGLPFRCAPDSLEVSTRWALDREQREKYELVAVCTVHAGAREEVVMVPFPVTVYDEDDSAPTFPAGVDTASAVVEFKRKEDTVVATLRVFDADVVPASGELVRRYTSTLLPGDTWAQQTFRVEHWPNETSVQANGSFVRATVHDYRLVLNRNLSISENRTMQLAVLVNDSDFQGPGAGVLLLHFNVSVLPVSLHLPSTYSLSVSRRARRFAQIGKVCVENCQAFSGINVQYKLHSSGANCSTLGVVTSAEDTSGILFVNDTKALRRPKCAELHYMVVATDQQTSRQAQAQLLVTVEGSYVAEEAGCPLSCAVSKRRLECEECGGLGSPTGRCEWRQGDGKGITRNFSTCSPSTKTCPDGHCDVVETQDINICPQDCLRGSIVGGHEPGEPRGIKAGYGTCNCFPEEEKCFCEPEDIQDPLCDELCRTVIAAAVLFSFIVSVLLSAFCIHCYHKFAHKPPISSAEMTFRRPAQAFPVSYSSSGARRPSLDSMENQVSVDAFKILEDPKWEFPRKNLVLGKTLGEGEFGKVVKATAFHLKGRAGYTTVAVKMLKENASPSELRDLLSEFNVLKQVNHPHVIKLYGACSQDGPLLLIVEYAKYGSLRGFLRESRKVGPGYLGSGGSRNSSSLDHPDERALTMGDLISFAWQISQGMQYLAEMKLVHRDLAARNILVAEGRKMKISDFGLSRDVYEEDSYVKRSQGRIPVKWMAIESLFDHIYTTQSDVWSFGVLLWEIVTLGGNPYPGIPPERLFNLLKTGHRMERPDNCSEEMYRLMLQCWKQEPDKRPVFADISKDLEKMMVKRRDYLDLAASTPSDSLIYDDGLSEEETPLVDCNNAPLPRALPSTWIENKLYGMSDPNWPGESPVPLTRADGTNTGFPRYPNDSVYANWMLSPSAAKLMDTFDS

Row | Kd [1] | IC50 [2] | IC50 [3] | IC50 [4] | IC50 [5] | IC50 [6] | SMILES
1 | 6 nM | 226 nM | 188 nM | 587 nM | 1020 nM | 1560 nM | CC(C)(C)c1cc(NC(=O)Nc2ccc(-c3cc(-c4cccc(OCCN5CCOCC5)c4)[nH]n3)cc2)no1
2 | 9.7 nM | 10.6 nM | 14 nM | 126 nM | 2250 nM | > 10000 nM | CC(C)(C)c1cc(NC(=O)Nc2ccc(-c3cc(-c4ccc(OCCN5CCOCC5)c(F)c4)[nH]n3)cc2)no1
3 | 21 nM | 29 nM | 36 nM | 335 nM | 746 nM | > 10000 nM | CC(C)(C)c1cc(NC(=O)Nc2ccc(-c3cc(-c4ccc(OCCN5CCOCC5)cc4)[nH]n3)cc2Cl)no1
4 | 15.5 nM | 67 nM | 62 nM | 606 nM | 1280 nM | 1210 nM | CC(C)(C)c1cc(NC(=O)Nc2ccc(-c3cc(-c4ccc(OCCN5CCOCC5)cc4Br)[nH]n3)cc2)no1
5 | 8.1 nM | 7.1 nM | 6.6 nM | 99.9 nM | 1320 nM | > 3000 nM | CC(C)(C)c1cc(NC(=O)Nc2ccc(-c3cc(-c4ccc(OCCN5CCOCC5)cc4)[nH]n3)cc2F)no1
6 | 16 nM | 165 nM | 209 nM | 410 nM | 1010 nM | 1050 nM | CC(C)(C)c1cc(NC(=O)Nc2ccc(-c3cc(-c4ccc(OCCN5CCOCC5)cc4)[nH]n3)c(Cl)c2)no1
7 | 12.5 nM | 120 nM | 173 nM | 2040 nM | 1960 nM | > 3000 nM | Cc1cc(OCCN2CCOCC2)ccc1-c1cc(-c2ccc(NC(=O)Nc3cc(C(C)(C)C)on3)cc2)n[nH]1

The next lines start with the molecule.

Row | SMILES | Kd [1] | IC50 [2] | IC50 [3] | IC50 [4] | IC50 [5] | IC50 [6]
8 | COc1cc(-c2cc(-c3ccc(NC(=O)Nc4cc(C(C)(C)C)on4)c(F)c3)n[nH]2)ccc1OCCN1CCOCC1 | 10.2 nM | 6.7 nM | 7.4 nM | 122 nM | 313 nM | > 10000 nM
9 | COc1ccc(CN2[C@@H]3C[C@H]2CN(c2ccc(-c4cc(OCC(C)(C)O)cn5ncc(C#N)c45)cn2)C3)cn1 |  | 11.5 nM | 26 nM | 1310 nM | 883 nM | > 3000 nM
10 | CC(C)(C)c1cc(NC(=O)Nc2ccc(-c3n[nH]c(-c4ccc(OCCN5CCOCC5)cc4Cl)n3)cc2)no1 | 10.2 nM | 328 nM | 339 nM | 682 nM | 869 nM | 424 nM
11 | COc1cc(-c2cc(-c3ccc(NC(=O)Nc4cc(C(C)(C)C)on4)cc3)n[nH]2)ccc1OCCN1CCOCC1 | 6.1 nM | 12.1 nM | 10.4 nM | 131 nM | 417 nM | 442 nM
12 | CN(C)CCCOc1ccc(-c2cc(-c3ccc(NC(=O)Nc4cc(C(C)(C)C)on4)cc3)n[nH]2)cc1 | 2 nM | 9.3 nM | 10.5 nM | 131 nM | 532 nM | 1180 nM
13 | COc1cc(-c2cc(-c3ccc(NC(=O)Nc4cc(C(C)(C)C(F)(F)F)on4)c(F)c3)n[nH]2)ccc1OCCN1CCOCC1 | 9 nM | 3 nM | 3.9 nM | 118 nM | 319 nM | 373 nM
